From patent US20260250301A1, “KRAS G12D INHIBITORS AND USES THEREOF” (SUZHOU ZANRONG PHARMA LIMITED, priority 2023, published 2026)

These compounds were tested on PANC-1 pERK (assay: Phospho-ERK 1/2 assay). Settings: Homo sapiens, PANC-1, 3 h, PANC-1 cells, compound incubation 3 hours, pERK normalised with GAPDH antibody staining.
Assay type: cell-based
Procedure: Allow PNAC-1 cell growth in a T75 flask in DMEM and 10% 1 fetal calf serum (FCS; Gibco®), using standard tissue culture procedures until ~80% confluency is achieved. Day 1, seed 6000 cells/well in 384 well plate and incubate at 37° C., 5% CO2. Add diluted compound by Echo 550, final DMSO is 0.5%, incubate cells at 37° C., 5% CO2 for 3 hours. Then, remove medium and fix cells with 3.7% formaldehyde in PBS (PFA) by Apricot. Wash with PBS once. Permeabilize cells with cold 100% methanol and repeat wash once with PBS once. Add Li-Cor blocking buffer to each well and incubate 1.5 hours at RT. Remove blocking buffer and add primary antibody mixture (rabbit anti pERK, mouse anti GAPDH). Incubate at 4° C. overnight. Day 2, wash with PBST (Tween-20 in PBS) with total 3 times and then add secondary antibody mixture (goat anti rabbit 800CW (1:800 dilution in the combined solution) and goat anti mouse 680RD (1:800 dilution in the combined solution)), incubate for 60 minutes at RT away from light. Repeat washing with PBST 3 times. After final wash, centrifuge plate up-side-down at 1000 rpm to remove wash solution completely from wells. Before plate scanning, clean the bottom plate surface and the Odyssey© Imager scanning bed (if applicable) with moist, lint-free tissue to avoid any obstructions during scanning. Scan plate with detection in both 700 and 800 nm channels.
`C#Cc1c(F)ccc2cc(O)cc(-c3nc4c5c(nc(=O)n(CC67CCCN6CC(=C)C7)c5c3F)N3C[C@H]5CC[C@H](N5)[C@H]3[C@H](C)O4)c12` (stereo partly drawn) [Example 222] gave an IC50 of 113 nM.
`C#Cc1c(F)ccc2cccc(-c3nc4c5c(nc(=O)n(CC67CCCN6CC(=C)C7)c5c3F)N3C[C@H]5CC[C@H](N5)[C@H]3CO4)c12` (stereo partly drawn) [Example 2] showed an IC50 of 15 nM.
`C#Cc1c(F)ccc2cccc(-c3nc4c5c(nc(=O)n(C[C@]67CC(=C)CN6C[C@@H](F)C7)c5c3F)N3C[C@H]5CC[C@H](N5)[C@H]3[C@H](C)O4)c12` (single isomer, unassigned) [Example 202b] showed an IC50 of 991 nM.
`C#Cc1c(F)ccc2cc(O)cc(-c3nc4c5c(cc(=O)n(C[C@@]67CCCN6CC(=C)C7)c5c3F)N3C[C@H]5CC[C@H](N5)[C@H]3[C@H](C)O4)c12` [Example 330, (5S,5aS,6S,9R)-2-(8-ethynyl-7-fluoro-3-hydroxynaphthalen-1-yl)-1-fluoro-5-methyl-14-(((S)-2-methylenetetrahydro-1H-pyrrolizin-7a(5H)-yl)methyl)-5a,6,7,8,9,10-hexahydro-5H-6,9-epiminoazepino[2′,1′:3,4][1,4] oxazepino[5,6,7-de][1,6]naphthyridin-13(14H)-one] showed an IC50 of 171 nM.
For `CCc1c(F)ccc2cc(O)cc(-c3nc4c5c(nc(=O)n(C[C@@]67CCCN6C[C@H](F)C7)c5c3F)N3C[C@@]5(C)CC[C@H](N5)[C@H]3[C@H](C)O4)c12` [Example 361, (5S,5aS,6S,9R)-2-(8-ethyl-7-fluoro-3-hydroxynaphthalen-1-yl)-1-fluoro-13-(((2R,7aS)-2-fluorotetrahydro-1H-pyrrolizin-7a(5H)-yl)methyl)-5,9-dimethyl-5a,6,7,8,9,10-hexahydro-5H-4-oxa-3,10a,11,13,14-pentaaza-6,9-methanonaphtho[1,8-ab]heptalen-12(13H)-one], the IC50 was 43 nM.
Compound `CCc1c(F)ccc2cc(O)cc(-c3nc4c5c(nc(=O)n(C[C@@]67CCCN6C[C@H](F)C7)c5c3F)N3C[C@@](C)(O)CCC3CO4)c12` (single isomer, unassigned) [Example 350a1] has an IC50 of 151 nM.
Work on `C#Cc1c(F)ccc2cc(O)cc(-c3nc4c5c(nc(=O)n(CC67CCCN6CC(=C)C7)c5c3F)N3C[C@H]5CC[C@H](N5)[C@H]3CO4)c12` (stereo partly drawn) [Example 24] yielded an IC50 of 85 nM.
For `C#Cc1c(F)ccc2cccc(-c3nc4c5c(nc(=O)n(C[C@@]6(C)CCN6C)c5c3F)N3C[C@H]5CC[C@H](N5)[C@H]3[C@H](C)O4)c12` [Example 357, (5S,5aS,6S,9R)-13-(((R)-1,2-dimethylazetidin-2-yl)methyl)-2-(8-ethynyl-7-fluoronaphthalen-1-yl)-1-fluoro-5-methyl-5a,6,7,8,9,10-hexahydro-5H-4-oxa-3,10a,11,13,14-pentaaza-6,9-methanonaphtho[1,8-ab]heptalen-12(13H)-one], the IC50 was 123 nM.
Work on `C=C1CN2CC(=C)CC2(Cn2c(=O)nc3c4c(nc(-c5cc(O)cc6ccc(F)c(CC)c56)c(F)c42)OC[C@@H]2[C@@H]4CC[C@H](CN32)N4)C1` [Example 47] yielded an IC50 of 629 nM.
`C#Cc1c(F)ccc2cccc(-c3nc4c5c(nc(=O)n(C(C)[C@H]6CCCN6C)c5c3F)N3C[C@H]5CC[C@H](N5)[C@H]3[C@H](C)O4)c12` (stereo partly drawn) [Example 370, (8S,8aS,9S,12R)-5-(8-ethynyl-7-fluoronaphthalen-1-yl)-4-fluoro-8-methyl-3-(1-((R)-1-methylpyrrolidin-2-yl)ethyl)-8a,9,10,11,12,13-hexahydro-8H-7-oxa-1,3,6,13a,14-pentaaza-9,12-methanonaphtho[1,8-ab]heptalen-2(3H)-one] showed an IC50 of 271 nM.
`C=C1CN2CCC[C@@]2(Cn2c(=O)nc3c4c(nc(-c5cc(O)cc6ccc(F)c(CC)c56)c(F)c42)O[C@@H](C)[C@@H]2[C@@H]4CC[C@](C)(CN32)N4)C1` [Example 362, (5S,5aS,6S,9R)-2-(8-ethyl-7-fluoro-3-hydroxynaphthalen-1-yl)-1-fluoro-5,9-dimethyl-13-(((S)-2-methylenetetrahydro-1H-pyrrolizin-7a(5H)-yl)methyl)-5a,6,7,8,9,10-hexahydro-5H-4-oxa-3,10a,11,13,14-pentaaza-6,9-methanonaphtho[1,8-ab]heptalen-12(13H)-one] showed an IC50 of 221 nM.
For `C#Cc1c(F)ccc2cccc(-c3nc4c5c(nc(=O)n([C@H](C)CN6[C@@H]7CC[C@H]6COC7)c5c3F)N3C[C@H]5CC[C@H](N5)[C@H]3[C@H](C)O4)c12` [Example 341, (5S,5aS,6S,9R)-13-((R)-1-((1R,5S)-3-oxa-8-azabicyclo[3.2.1]octan-8-yl)propan-2-yl)-2-(8-ethynyl-7-fluoronaphthalen-1-yl)-1-fluoro-5-methyl-5a,6,7,8,9,10-hexahydro-5H-4-oxa-3,10a,11,13,14-pentaaza-6,9-methanonaphtho[1,8-ab]heptalen-12(13H)-one], the IC50 was 70 nM.
In the case of `C=C1CN2CCC[C@@]2(Cn2c(=O)nc3c4c(nc(-c5cc(O)cc6ccc(F)c(CC)c56)c(F)c42)OC[C@@H]2[C@@H]4CC[C@H](CN32)N4)C1` (single isomer, unassigned) [Example 46a], the IC50 is reported as 5.9 nM.
`C=C1CN2CCC[C@@]2(Cn2c(=O)nc3c4c(nc(-c5cc(O)cc6ccc(F)c(Cl)c56)c(F)c42)O[C@@H](C)[C@@H]2[C@@H]4CC[C@H](CN32)N4)C1` [Example 363, (5S,5aS,6S,9R)-2-(8-chloro-7-fluoro-3-hydroxynaphthalen-1-yl)-1-fluoro-5-methyl-13-(((S)-2-methylenetetrahydro-1H-pyrrolizin-7a(5H)-yl)methyl)-5a,6,7,8,9,10-hexahydro-5H-4-oxa-3,10a,11,13,14-pentaaza-6,9-methanonaphtho[1,8-ab]heptalen-12(13H)-one] gave an IC50 of 88 nM.
In the case of `CCc1c(F)ccc2cc(O)cc(-c3nc4c5c(nc(=O)n(C(C)[C@H]6CCN6C)c5c3F)N3C[C@H]5CC[C@H](N5)[C@H]3[C@H](C)O4)c12` (single isomer, unassigned) [Example 376a], the IC50 is reported as 145 nM.
For `CCc1c(F)ccc2cc(O)cc(-c3nc4c5c(nc(=O)n(C[C@@]67CCCN6C[C@H](F)C7)c5c3F)N3C[C@H]5CC[C@H](N5)[C@H]3[C@H](C)O4)c12` [Example 227], the IC50 was 5.2 nM.
Compound `C#Cc1c(F)ccc2cccc(-c3nc4c5c(nc(=O)n(C[C@@]6(C)CCCN6C)c5c3F)N3C[C@H]5CC[C@H](N5)[C@H]3[C@H](C)O4)c12` [Example 367, (8S,8aS,9S,12R)-3-(((R)-1,2-dimethylpyrrolidin-2-yl)methyl)-5-(8-ethynyl-7-fluoronaphthalen-1-yl)-4-fluoro-8-methyl-8a,9,10,11,12,13-hexahydro-8H-7-oxa-1,3,6,13a,14-pentaaza-9,12-methanonaphtho[1,8-ab]heptalen-2(3H)-one] has an IC50 of 234 nM.
`C#Cc1c(F)ccc2cccc(-c3nc4c5c(nc(=O)n(C[C@@]67CCCN6C[C@H](F)C7)c5c3F)N3C[C@H]5CC[C@H](N5)[C@H]3[C@H](C)O4)c12` [Example 199, (5S,5aS,6S,9R)-2-(8-ethynyl-7-fluoronaphthalen-1-yl)-1-fluoro-13-(((2R,7aS)-2-fluorotetrahydro-1H-pyrrolizin-7a(5H)-yl)methyl)-5-methyl-5a,6,7,8,9,10-hexahydro-5H-4-oxa-3,10a,11,13,14-pentaaza-6,9-methanonaphtho[1,8-ab]heptalen-12(13H)-one] was tested, and the IC50 was 37 nM.
With `C#Cc1c(F)ccc2cccc(-c3nc4c5c(nc(=O)n(C[C@@]67CCCN6C[C@H](F)C7)c5c3F)N3C[C@H]5CC[C@H](N5)[C@H]3CO4)c12` [Example 1, (5aS,6S,9R)-2-(8-ethynyl-7-fluoronaphthalen-1-yl)-1-fluoro-13-(((2R,7aS)-2-fluorotetrahydro-1H-pyrrolizin-7a(5H)-yl)methyl)-5a,6,7,8,9,10-hexahydro-5H-4-oxa-3,10a,11,13,14-pentaaza-6,9-methanonaphtho[1,8-ab]heptalen-12(13H)-one] the IC50 was 386 nM.

Same assay, conditions: Homo sapiens; PANC-1 cells, compound incubation 3 hours, pERK normalised with GAPDH antibody staining
With `C#Cc1c(F)ccc2cc(O)cc(-c3nc4c5c(nc(=O)n(C[C@@]67CCCN6C[C@H](F)C7)c5c3F)N3C[C@H]5CC[C@H](N5)[C@H]3CO4)c12` [Example 23, (5aS,6S,9R)-2-(8-ethynyl-7-fluoro-3-hydroxynaphthalen-1-yl)-1-fluoro-13-(((2R,7aS)-2-fluorotetrahydro-1H-pyrrolizin-7a(5H)-yl)methyl)-5a,6,7,8,9,10-hexahydro-5H-4-oxa-3,10a,11,13,14-pentaaza-6,9-methanonaphtho[1,8-ab]heptalen-12(13H)-one] the IC50 was 96 nM.

Same assay, conditions: PANC-1 cells, compound incubation 3 hours, pERK normalised with GAPDH antibody staining
With `C#Cc1c(F)ccc2cccc(-c3nc4c5c(nc(=O)n(CC(C)(CO)N(C)C)c5c3F)N3C[C@H]5CC[C@H](N5)[C@H]3[C@H](C)O4)c12` (single isomer, unassigned) [Example 365b] the IC50 was 110 nM.
Compound `C#Cc1c(F)ccc2cccc(-c3nc4c5c(nc(=O)n(C6C7CC6CN(C)C7)c5c3F)N3C[C@H]5CC[C@H](N5)[C@H]3[C@H](C)O4)c12` (single isomer, unassigned) [Example 371b] has an IC50 of 794 nM.
For `C#Cc1c(F)ccc2cccc(-c3nc4c5c(nc(=O)n(C(C)[C@H]6CCN6C)c5c3F)N3C[C@H]5CC[C@H](N5)[C@H]3[C@H](C)O4)c12` (single isomer, unassigned) [Example 372b], the IC50 was 70 nM.
`C#Cc1c(F)ccc2cccc(-c3nc4c5c(nc(=O)n(C(C)[C@H]6CCN6C)c5c3F)N3C[C@H]5CC[C@H](N5)[C@H]3[C@H](C)O4)c12` (single isomer, unassigned) [Example 372a] showed an IC50 of 391 nM.
